Test results published in patent publication US11759480B2, “Compositions and methods for CAR T cell therapy” (ENDOCYTE, INC., priority 2017, dated 2023).

Legend:
THP-1-FRβ tumors = assay: EC17/CAR-T therapy in folate receptor-β positive acute myeloid leukemia model (Example 44); format: in vivo
From the text: THP-1-FRβ tumors were generated by intravenous implantation of cultured cells at 5×10^6 per animal in 9 NSG mice.
Starting 11 days post tumor implantation, ˜8.3 million of GFP+4M5.3 CAR-T cells were intravenously infused into each mouse. Mice were divided into 3 groups (n=3): (1) CAR-T cell alone, (2) CAR-T cells with weekly EC17 doses at 500 nmol/kg, and (3) CAR-T cells with weekly EC17 doses at 500 nmol/kg plus sodium fluorescein rescue when needed. The first EC17 dose was given two days after CAR-T cell administration. All EC17 doses were given towards the end of day (˜3-4 PM) to allow cytokine release syndrome (CRS) to develop overnight. […] No additional sodium fluorescein rescue was given for additional EC17 dosing in Group 3. Mice were weighed and monitored for sign of health and disease development. […] Upon euthanasia, all mice were subject to gross examination for the presence of tumor masses. All visible tumor masses were excised, counted and weighed. Blood, tumor metastases (mets) and normal adjacent tissues were collected for same-day flow cytometry analysis.
Plasma was removed from predetermined volumes of whole EDTA treated blood with a 10-minute 4° C. spin at 3000×g and the resulting cell pellets were incubated with a 10-fold volume of room temperature 1×RBC lysis solution (prepared from 10× stock; Biolegend, catalog #420301) for 5 minutes, centrifuged at 400×g for 5 min. The cell pellets were washed in a 10-fold volume of ice-cold phosphate-buffered saline (PBS, pH=7.4 and filtered with a 40 μm nylon filter then pelleted again. The leukocyte cell pellets were then resuspended in a flow cytometry staining solution (1% bovine serum albumin, […] human IgG (Equitech Bio, cat #SLH56-0001), 0.9% sodium azide in PBS, pH=7.4) supplemented with both anti-mouse FcγIII/II receptor (CD16/CD32) block (clone 2.4G2; BD Bioscience, catalog #553142 at 1:100 (v/v) dilution) and anti-human Fc Block (BD Biosciences, catalog #564220 at 1:50 (v/v) dilution). Surface marker staining was performed with the addition of the following fluorochrome conjugated monoclonal antibodies added to each sample for 20 minutes on ice in the dark: anti-human CD45-APCeF780 (clone HI30, eBioscience #47-0459-42 at 1:20 (v/v) dilution), anti-human CD3-BV650 (clone SK7, BD Bioscience, catalog #563999 at 1:20 (v/v) dilution), anti-human CD137-BV650 (clone 4B4-1, BD Bioscience #564092 at 1:20 (v/v) dilution), anti-human CD8α-PECy7 (clone RPA-T8, BD Bioscience, catalog #557746 at 1:20 (v/v) dilution), anti-human CD4-Percpe710 (clone SK3, eBioscience catalog #46-0047-42 at 1:20 (v/v) dilution), anti-human CD25-PE (clone M-A251, BD Bioscience, catalog #555432 at 1:10 (v/v) dilution), anti-human CD33-PE (clone WM53, BD Bioscience, catalog #555450 at 1:5 (v/v) dilution), anti-human CD123-AF647 (clone 9F5, BD Bioscience, catalog #563599 at 1:20 (v/v) dilution). Biotinylated anti-human folate receptor-β (clone m909) was kindly provided by the Low lab at Purdue University (Arthritis Res Ther. 2011; 13(2):R59) and detected using streptavidin-eFluor660 (eBioscience, catalog #50-4317 at 1:1000 (v/v) dilution). Folic acid binding was interpreted as a measure of functional folate receptor and was determined by incubation with an Alexa Fluor conjugated folic acid which was synthesized in house. After leukocyte staining, cells were washed with PBS and resuspended in cold PBS containing 3 μM propidium idodide. Flow cytometry data was collected on the Gallios flow cytometer (Beckman Coulter, Brea, Calif.), where a minimum of 15,000 CountBright™ bead events were collected in an attempt to collect enough leukocyte events for an accurate count of infused CAR T cells in each mouse blood sample. Determination of the concentration of CAR T cells in each blood sample was calculated according to Invitrogen's instructions. Briefly, CAR T cells were identified as human CD45+ GFP+ events and easily distinguished and counted using the Kaluza™ flow cytometry software version 1.5. […]

MDA-MB-231 cells = assay: Bridge dose versus lysis and IFNγ release in MDA-MB-231 cell cultures (Example 43); format: cell-based, human; settings: 0.001 to 100,000 nM, Effector:Tumor 5:1
Description: FR positive cancer cell lines (e.g. KB or MDA-MB-231 cells) were seeded at density of 10^4 cells/100 μl media into 96 well plates and grown overnight. Anti-fluorescein CAR T cells were added to each well in the absence or presence of bridge molecules. After co-incubation for 6-24 hours, plates were centrifuged at 350×g for 10 min to remove debris and supernatants were analyzed for lactate dehydrogenase release (cell death analysis) using Pierce™ LDH cytotoxicity assay kit (Thermo Fisher Scientific, MA) and interferon γ (IFNγ) levels using human IFNγ ELISA kit (Biolegend, CA), while pellets were either evaluated for CAR T cell activation by staining with anti-human CD69 APC (Clone: FN50, Biolegend, CA) or examined for CAR T cell proliferation by culturing for 5 days in TexMACS™ medium (Miltenyi Biotech Inc, CA) containing 1% penicillin and streptomycin sulfate and quantitating by flow cytometry using the intrinsic GFP fluorescence and staining with anti-human CD3 APC antibody (Clone:HIT3a, Biolegend, CA).
Although a highly elevated and prolonged CRS can often lead to patient death, some level of CRS has been viewed as desirable, since patients displaying no evidence of CRS are not commonly observed to respond to CAR T cell therapies. […]

HOS-FRα = assay: EC17-controlled anti-FITC CAR T-cell therapy in osteosarcoma model (Example 47); format: in vivo, NSG mice
From the text: HOS-FRα cells were implanted subcutaneously with 5×10^5 per animal in 6 animals.
[…] One animal in the EC17-treated group received two more doses of EC17 at 50 and 100 nmol/kg on Days 40 and 42. All EC17 doses were given towards the end of the day (˜3-4 PM) to allow cytokine release syndrome (CRS) to develop overnight. Sodium fluorescein rescue was done as needed at 0.6 μmol/kg. Only the last EC17-dosed animal received sodium fluorescein on day 47.

SMILES | recovery from CRS (THP-1-FRβ tumors; 6 μmol/kg, Group 3) | CAR T cell functionality after rescue (THP-1-FRβ tumors; mouse #10, rescue after first EC17 dose) | bridge dose with little effect on tumor cell lysis (MDA-MB-231 cells) | GFP+ leukemic cells in blood (THP-1-FRβ tumors; 500 nmol/kg SIW for 4 weeks, day 34 post CAR-T infusion) | CRS grade (THP-1-FRβ tumors; morning after first EC17 dose 500 nmol/kg, ~8.3 million CAR-T) | persistence of anti-leukemia activity post CAR T cell infusion (THP-1-FRβ tumors; mouse, in vivo) | EC17-treated mice with minimum tumor load at collection (THP-1-FRβ tumors; weekly 500 nmol/kg, +/- one-time sodium fluorescein rescue) | CAR T cell phenotype (THP-1-FRβ tumors; weekly injections of EC17) | tumor volume (HOS-FRα; 500 nmol/kg SIW, 10.5 million CAR T-cells) | CRS (HOS-FRα; once tumors reached >200 mm^3)
O=C([O-])c1ccccc1-c1c2ccc(=O)cc-2oc2cc([O-])ccc12.[Na+].[Na+] [sodium fluorescein] | completely recovered | CAR T cell functionality was preserved | – | – | – | – | – | – | – | –
Nc1nc2ncc(CNc3ccc(C(=O)NC(CCC(=O)NCCNC(=S)Nc4ccc(-c5c6ccc(=O)cc-6oc6cc(O)ccc56)c(C(=O)O)c4)C(=O)O)cc3)nc2c(=O)[nH]1 (stereo not shown) [EC17, FITC-Folate] | – | – | below 0.01 nM | nearly undetectable in the blood | ~3 grade | 47 days | five out of the 6 | central memory/effector memory phenotype | started to shrink on Days 28 and 33 | CRS was severe
